A value given as a limit tells only on which side of the number the result lay.

Data set [1] has as its system hippocampal kindled seizures. Nature of the data set: Rat Hippocampal Kindling Model (Interruption of Kindled State). The class given is in vivo. Conditions: for ED50: Rattus norvegicus, ip, read-out: ED50 = median therapeutic dose; for After-Discharge Duration (% of control) / Mean Seizure Score: i.p., line of the ED50 dose; for effect on seizure activity: reference drugs. The procedure:
In the present rapid hippocampal kindling model adult male Sprague-Dawley rats (300-400 g) were surgically implanted with bipolar electrodes placed in the hippocampus. […] One week later, the rats received 2-3 supra-threshold stimulations delivered every 30 min before compound treatment to ensure stability of the behavioral seizure stage and after-discharge duration. Fifteen minutes after the last stimulation, a single dose of vehicle or test compound was administered i.p (intraperitoneally). After 15 min, each rat was then stimulated every 30 min for 3 to 4 h. After each stimulation, individual seizure scores and after-discharge durations were recorded. The group mean±SEM were calculated for each parameter. Eight rats per dose and a minimum of four doses were used to establish an ED50 value. Efficacy was measured as the ability of a compound to modify the seizure score (severity of spread) and after-discharge duration (ADD; excitability) of the generalized seizures.
Thus, according to the theories presented in current literature (Ghaemi, S. N., Boiman, E. E., and Goodwin, F. K., Soc. of Bio. Psychiatry, (1999), vol. 45, pp 137-144; Stoll, A. L., and Severus, W. E., Harvard Rev. Psychiatry, July/August (1996), Vol. 4, No. 2, pp 77-89) a decrease in seizure score and/or ADD may also be predictive of the ability of a test compound to treat the cycling associated with bipolar disorder.

Data set [2] in a line: Median toxic dose (TD50), i.p., listed with the Rat Hippocampal Kindling Test. Conditions: Sprague-Dawley, in vivo, ip, Table 4 dose column.
The test system of data set [3] is hippocampal kindled seizures. Conditions: background statement; cited from earlier work.
The subject of data set [4] is LTG-resistant amygdala kindled seizures. Particulars: 5 mg/kg, i.p., q.d.; cited from earlier work.
The test system of data set [5] is amygdala kindled seizures. Conditions: i.p., cited from earlier work.
The next data set has as its system dominant rats. The data set is described as follows: Dominant-Submissive assay: Reduction of Dominant Behavior Model (RDBM). Format: in vivo, rat. Conditions: for treatment time after which dominant behavior was significantly reduced: historical data, FIG. 2, i.p.: lithium 100 mg/kg, carbamazepine 20 mg/kg, VPA 30 mg/kg. The procedure:
Dominance and submissiveness, defined in a competition test and measured as the relative success of two food-restricted rats to gain access to a feeder, form a behavioral paradigm—the Dominant Submissive Relationship (DSR). This paradigm results in two models which are predictive of ability of test compounds (drugs) to treat mood disorders.
Test compounds are evaluated for either their ability to inhibit the dominant behavior of rats taking food at the expense of an opponent (reduction of dominant behavior model or RDBM) and thus their potential as treatments for mania; or for their ability to increase the competitive behavior of submissive rats losing such encounters (reduction of submissive behavior model or RSBM) and thus their potential as treatments for depression; (Malatynska, E., and Knapp, R. J., Neuroscience and Biobehavioral Review, 29 (2005) 715-737).
The Reduction of Dominant Behavior Model (RDBM) test, wherein the dominant animals are treated with test compound, is predictive of the ability of the test compound to treat mani. This model was applied to Compound #1 of the present invention, according to the following procedure.
(§1) Male Sprague Dawley rats (140 to 160 g) from Charles River Laboratories Wilmington, Mass. were used in this assay. Shipments of rats were received at two-week intervals. Each shipment went through five-day quarantine, one-week acclimation period, and one-week selection process, followed by five-weeks of drug or vehicle treatment to those pairs selected.
(§2) Rats were housed four per cage. Access to food was restricted to one hour per day after testing on Monday through Thursday. After testing on Friday, rats had free access to food until being fasted again on Sunday. At no time were the rats deprived of water. The food deprivation periods used had little effect on weight gain as the average weight of rats was about 300 g at the end of the study. At the conclusion of experiment rats were sacrificed by decapitation, the trunk blood and brains were collected for in vitro experiments and drug concentration measurements.
(§3) The basic testing apparatus consisted of two chambers connected with a tunnel only large enough to allow one rat to pass through at a time. On the floor, at the mid-point of the tunnel was a container of sweetened milk. […] During the five-minute daily sessions, time spent in the feeder zone by each rat was recorded by the video tracking software and saved into a text file.
(§4) The test began with a random assignment of rats into pairs. […] The time spent in the feeder zone by each animal was recorded. […] Finally, there must have been no “reversals” during the pair selection week where the putative submissive rat out-scored its dominant partner on isolated occasions. […]

Another data set deals with submissive rats. Nature of the data set: Dominant-Submissive assay: Reduction of Submissive Behavior Model (RSBM). Format: in vivo, rat. The procedure:
The Reduction of Submissive Behavior Model (RSBM) test, wherein the submissive animals are treated with test compound, is predictive of the ability of the test compound to treat depression. This model was applied to Compound #1 of the present invention, according to the following procedure.
as §1, §2, §3, §4
Significant differences between time spent on the feeder by dominant and submissive rats were determined by ANOVA using GraphPad Prism software (GraphPad Software, Inc. San Diego, Calif.) followed by a two-tailed t-test (P<0.05). […]

Data set [6] relates to amygdala kindled seizures. Nature of the data set: Amygdala Kindling Assay (Kindling Prevention). The class given is in vivo, rat.
Data set [7] concerns LTG-resistant amygdala kindled seizures. Nature of the data set: Lamotrigine Resistant Amygdala Kindled Rat Model (Interruption of Kindled State). The class given is in vivo. Conditions: 100 mg/kg, i.p. On the procedure:
Amygdala kindling is less severe than hippocampal kindling, such that many AEDs are effective against amygdala kindled seizures, but are ineffective against hippocampal kindled seizures.
In the LTG-resistant amygdala kindling model, rats were dosed with LTG (5 mg/kg, i.p., q.d.) during the acquisition phase of kindling. […] Once kindled (supra-threshold stimulation of 150 μA biphasic 60 Hz current pulse for 1 second; ˜2 weeks), rats were re-challenged with a high dose of LTG (45 mg/kg, i.p.) one week later to insure resistance. After a 3-4 day wash out period, rats received 2-3 supra-threshold stimulations delivered every 30 min before compound treatment to ensure stability of the behavioral seizure stage and after-discharge duration. Fifteen minutes after the last stimulation, a single dose of vehicle or test compound was administered i.p. After 15 min, each rat was then stimulated every 30 min for 3 to 4 h. After each stimulation, individual seizure scores and after-discharge durations were recorded. The group mean±SEM was calculated for each parameter.

In general, ED50 refers to the dose that gives a 50% effect, or the effect in half of the subjects. As a reminder, the TD50 is the 50% point of the dose-response relation for the toxic effect studied. Low values mean harm at a small dose, high ones harm only at a large dose. Consider `CCCC(CCC)C(=O)O` [Valproic acid], for which, in data set [1], the ED50 came out at 350 mg/kg; the “After-Discharge Duration (% of control)” value was 3 ± 1.4% of control; the “Mean Seizure Score” value was determined as 0.3 ± 0.3; the “effect on seizure activity” value is recorded as “suppressed seizure activity, but at doses associated with toxicity”. Moreover, in data set [1] (rat, in vivo), the “dose giving protection similar to Compound #1 (toxic doses)” value was over 300 mg/kg. The TD50 in data set [2] was 316 mg/kg.
On to `CCC1(C)CC(=O)NC1=O` (centres unmarked) [Ethosuximide], for which, in data set [1], the median effective dose (ED50) is 250 mg/kg, the “After-Discharge Duration (% of control)” value is 78 ± 13% of control, the “Mean Seizure Score” value was 5 ± 0 and the “effect on seizure activity” value was “ineffective”. This compound came in with a TD50 in data set [2] of 189 mg/kg.
For `Nc1nnc(-c2cccc(Cl)c2Cl)c(N)n1` [LTG, lamotrigine], in data set [3], the “protection against hippocampal kindled seizures” value is recorded as “unable to protect against hippocampal kindled seizures”. The “effect on kindling during acquisition phase” value in [4] is “no effect on kindling itself”. Further, the “ED50, amygdala kindled seizures” value in data set [5] (Cl=4-50 mg/kg) is 25 mg/kg. In data set [5], the “ADD reduced by” value was 62% and the “amygdala kindled seizure score” value is given as about 2.
For `CCCC(CCC)C(=O)[O-].[Na+]` [VPA, sodium valproate], the “treatment time after which dominant behavior was significantly reduced” value in the data set with dominant rats was found to be 1 weeks.
Regarding `NC(=O)N1c2ccccc2C=Cc2ccccc21` [Carbamazepine, carbamazepine], the “treatment time after which dominant behavior was significantly reduced” value in the data set with dominant rats is 3 weeks. Also, in data set [1], the median effective dose (ED50) was determined as 50 mg/kg; the “After-Discharge Duration (% of control)” value is listed as 72 ± 13% of control; the “Mean Seizure Score” value came to 2.3 ± 0.6; the “effect on seizure activity” value is on record as “suppressed seizure activity, but at doses associated with toxicity”. In [2], this compound displayed a TD50 of 26 mg/kg.
Take `O=C1NC(=O)C(c2ccccc2)(c2ccccc2)N1` [Phenytoin]: in [1], the ED50 worked out at 150 mg/kg; the “After-Discharge Duration (% of control)” value is 209 ± 43% of control; the “Mean Seizure Score” value is 4.3 ± 0.3; the “effect on seizure activity” value was “suppressed seizure activity, but at doses associated with toxicity”. Moreover, the TD50 in [2] was determined as 15 mg/kg.
Take `NS(=O)(=O)NCc1csc2ccccc12` [Compound #1, N-(benzo[b]thien-3-ylmethyl)-sulfamide]: in the data set on dominant rats (1.25 mg/kg p.o. BID, p<0.05), the “treatment time after which reduction of dominant behavior was statistically significant” value turned out to be 2 weeks. The “reduction of dominant behavior (dominance level)” value in the data set with dominant rats (p.o. BID 1.25, 6, 30, 60 mg/kg, FIG. 1) is reported as “reduced dominant behavior in a dose-dependent manner”. Besides, the “treatment time after which reduction of submissive behavior was statistically significant” value in the data set with submissive rats (30 mg/kg p.o. twice a day, p<0.05) turned out to be 5 weeks; in the data set with submissive rats (60 mg/kg p.o. twice a day, p<0.01) it was 17 days. Also, the “reduction of submissive behavior (antidepressant)” value with submissive rats (p.o. twice a day for 5 weeks, 6, 30, 60 mg/kg) was “reduced submissive behavior (antidepressant) in a dose-dependent manner”. Further, the “seizure score at the conclusion of the drug- and stimulus-free period versus vehicle” value in [6] (100 mg/kg i.p. during acquisition, re-challenged in the absence of drug) is reported as “remained significantly lower”. The “acquisition of the fully generalized kindled seizure” value in [6] (100 mg/kg i.p., FIG. 4) is given as “prevented the acquisition of the fully generalized kindled seizure”. In data set [7] (n=11), the rats protected result is listed as “Five out of eleven”. Further, in [7] (reduced from a 5), the “seizure score after treatment” value is given as 3.1. For the same compound, the TD50 in [2] stood at 100 mg/kg.

The values above are taken from patent US20070191450A1, “Use of Benzo-Heteroaryl Sulfamide Derivatives for the Treatment of Mania and Bipolar Disorder” (priority 2006, published 2007).
